# Values quoted from earlier work as cited in US7196084B2, “Cdc25 phosphatase inhibitors” (Societe de Conseils de Recherches et d'Applications …, priority 2000, dated 2007).
# What was measured:
# cdc25-C = target: T1, cdc25-C (Homo sapiens, UniProt P30307); settings: read-out: inhibition constant (Ki) on cdc25-C; cited from earlier work
# T1 sequence (P30307 1-473): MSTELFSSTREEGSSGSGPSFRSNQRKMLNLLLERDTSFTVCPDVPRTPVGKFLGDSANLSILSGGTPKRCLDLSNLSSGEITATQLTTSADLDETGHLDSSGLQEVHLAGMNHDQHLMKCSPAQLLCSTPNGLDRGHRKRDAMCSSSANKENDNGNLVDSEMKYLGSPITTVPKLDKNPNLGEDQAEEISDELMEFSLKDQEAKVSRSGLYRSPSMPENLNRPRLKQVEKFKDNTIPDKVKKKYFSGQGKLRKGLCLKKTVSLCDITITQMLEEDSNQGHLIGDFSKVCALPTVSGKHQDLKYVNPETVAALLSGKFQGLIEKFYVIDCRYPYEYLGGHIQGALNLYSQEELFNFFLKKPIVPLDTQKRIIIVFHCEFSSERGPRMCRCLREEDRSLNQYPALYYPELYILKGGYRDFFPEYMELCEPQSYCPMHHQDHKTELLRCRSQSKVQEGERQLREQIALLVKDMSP
# cdc25-B2 = target: T2, cdc25-B2 (Homo sapiens, UniProt P30305); settings: read-out: inhibition constant (Ki) on cdc25-B2; cited from earlier work
# T2 sequence (P30305 1-539 isoform P30305-3): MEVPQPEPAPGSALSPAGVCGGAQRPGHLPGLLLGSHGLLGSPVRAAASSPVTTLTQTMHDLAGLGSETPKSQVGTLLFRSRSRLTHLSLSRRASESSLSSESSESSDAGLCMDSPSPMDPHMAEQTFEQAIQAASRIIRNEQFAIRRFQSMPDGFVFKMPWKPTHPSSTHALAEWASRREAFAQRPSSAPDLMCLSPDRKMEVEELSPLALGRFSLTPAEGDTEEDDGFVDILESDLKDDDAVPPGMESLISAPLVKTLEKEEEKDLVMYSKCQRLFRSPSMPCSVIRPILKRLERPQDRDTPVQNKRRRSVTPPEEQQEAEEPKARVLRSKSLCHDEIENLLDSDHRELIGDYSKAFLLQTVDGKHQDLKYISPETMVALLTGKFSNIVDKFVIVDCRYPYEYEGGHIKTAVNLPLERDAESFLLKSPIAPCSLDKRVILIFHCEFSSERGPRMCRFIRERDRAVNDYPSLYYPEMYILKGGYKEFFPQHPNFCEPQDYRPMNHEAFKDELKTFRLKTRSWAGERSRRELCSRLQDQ
# cdc25-A = target: T3, cdc25-A (Homo sapiens, UniProt P30304); settings: read-out: inhibition constant (Ki) on cdc25-A; cited from earlier work
# T3 sequence (P30304 1-524): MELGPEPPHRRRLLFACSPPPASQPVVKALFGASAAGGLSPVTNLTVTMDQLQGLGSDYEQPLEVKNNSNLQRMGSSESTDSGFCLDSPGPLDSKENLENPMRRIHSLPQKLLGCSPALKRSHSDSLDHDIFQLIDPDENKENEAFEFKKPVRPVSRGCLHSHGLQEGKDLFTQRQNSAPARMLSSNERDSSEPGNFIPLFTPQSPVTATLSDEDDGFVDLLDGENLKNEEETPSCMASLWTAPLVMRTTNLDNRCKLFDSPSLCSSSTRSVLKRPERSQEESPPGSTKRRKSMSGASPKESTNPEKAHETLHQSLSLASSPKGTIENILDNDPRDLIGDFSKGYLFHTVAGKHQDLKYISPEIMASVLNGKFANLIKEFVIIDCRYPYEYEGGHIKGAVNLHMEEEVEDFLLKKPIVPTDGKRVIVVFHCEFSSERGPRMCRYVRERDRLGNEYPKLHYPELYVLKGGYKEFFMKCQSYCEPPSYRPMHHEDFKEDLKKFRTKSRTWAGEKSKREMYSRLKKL
compound,measurement,setting,value
CC1=C(SCCO)C(=O)c2ccccc2C1=O [Cpd5],Ki,cdc25-C,1.3 µM
same,Ki,cdc25-B2,1.7 µM
same,Ki,cdc25-A,15 µM
